Test results: PubChem BioAssay AID1963981 (Molecular Pharmacology Branch, DTP, NCI, 2024)

Tested on: 354836-022-R-J1-PDC multicell spheroid viability
Test: Anticancer human tumor 354836-022-R-J1-PDC patient-derived head and neck squamous cell carcinoma cell line growth inhibition [PI3K]
Conditions: for IC50: curve of first compound; for viability, T/C: stronger effect = lower value; active = viability on the fitted dose curve at most 10% of control; inactive = the rest
Summary of the method: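 Viability of mixed-cell spheroids was determined after exposure to pairwise combinations, one partner being inavolisib, alpelisib, duvelisib or copanlisib. Highest tested concentration matched clinical Cmax where known and 10 microM where not, descending in half-log steps.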

[1] = second compound 0.0316 µM, first compound 0.0316 µM
[2] = second compound 0.0316 µM, first compound 0.1 µM
[3] = second compound 0.0316 µM, first compound 0.316 µM
[4] = second compound 0.0316 µM, first compound 1 µM
[5] = second compound 0.0316 µM, first compound 3.16 µM
[6] = second compound 0.0316 µM, first compound 10 µM
[7] = second compound 0.1 µM, first compound 0.0316 µM
[8] = second compound 0.1 µM, first compound 0.1 µM
[9] = second compound 0.1 µM, first compound 0.316 µM
[10] = second compound 0.1 µM, first compound 1 µM
[11] = second compound 0.1 µM, first compound 3.16 µM
[12] = second compound 0.1 µM, first compound 10 µM
[13] = second compound 0.316 µM, first compound 0.0316 µM
[14] = second compound 0.316 µM, first compound 0.1 µM
[15] = second compound 0.316 µM, first compound 0.316 µM
[16] = second compound 0.316 µM, first compound 1 µM
[17] = second compound 0.316 µM, first compound 3.16 µM
[18] = second compound 0.316 µM, first compound 10 µM
[19] = second compound 1 µM, first compound 0.0316 µM
[20] = second compound 1 µM, first compound 0.1 µM
[21] = second compound 1 µM, first compound 0.316 µM
[22] = second compound 1 µM, first compound 1 µM
[23] = second compound 1 µM, first compound 3.16 µM
[24] = second compound 1 µM, first compound 10 µM
[25] = second compound 3.16 µM, first compound 0.0316 µM
[26] = second compound 3.16 µM, first compound 0.1 µM
[27] = second compound 3.16 µM, first compound 0.316 µM
[28] = second compound 3.16 µM, first compound 1 µM
[29] = second compound 3.16 µM, first compound 3.16 µM
[30] = second compound 3.16 µM, first compound 10 µM
[31] = second compound 10 µM, first compound 0.0316 µM
[32] = second compound 10 µM, first compound 0.1 µM
[33] = second compound 10 µM, first compound 0.316 µM
[34] = second compound 10 µM, first compound 1 µM
[35] = second compound 10 µM, first compound 3.16 µM
[36] = second compound 10 µM, first compound 10 µM
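Note: spheroids exposed to agents for seven days before the viability read.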

CC(Cn1ccc(-c2ccc(C#N)c(Cl)c2)n1)NC(=O)c1cc(C(C)O)[nH]n1 (stereo unspecified) + Cc1nc(NC(=O)N2CCCC2C(N)=O)sc1-c1ccnc(C(C)(C)C(F)(F)F)c1
< 0.0316 µM: IC50 (second compound 10 µM)
> 10 µM: IC50 (second compound 0.0316 µM) | IC50 (second compound 0.1 µM) | IC50 (second compound 0.316 µM) | IC50 (second compound 1 µM) | IC50 (second compound 3.16 µM)
inactive: viability, T/C [1] 109% | viability, T/C [2] 88.7% | viability, T/C [3] 96% | viability, T/C [4] 83.6% | viability, T/C [5] 97.4% | viability, T/C [6] 71.6% | viability, T/C [7] 106% | viability, T/C [8] 93% | viability, T/C [9] 97.8% | viability, T/C [10] 85.6% | viability, T/C [11] 91.1% | viability, T/C [12] 82% | viability, T/C [13] 88.8% | viability, T/C [14] 91.8% | viability, T/C [15] 81% | viability, T/C [16] 102% | viability, T/C [17] 81.2% | viability, T/C [18] 67.6% | viability, T/C [19] 74.2% | viability, T/C [20] 66% | viability, T/C [21] 83% | viability, T/C [22] 82.3% | viability, T/C [23] 83.3% | viability, T/C [24] 61.9% | viability, T/C [25] 62.4% | viability, T/C [26] 61.1% | viability, T/C [27] 60.5% | viability, T/C [28] 71.8% | viability, T/C [29] 71.3% | viability, T/C [30] 57% | viability, T/C [31] 43.6% | viability, T/C [32] 33.7% | viability, T/C [33] 39.9% | viability, T/C [34] 44.4% | viability, T/C [35] 45.5% | viability, T/C [36] 37.1%

C[C@@H](NC(=O)c1ncnc(N)c1Cl)c1ncc(C(=O)Nc2cc(C(F)(F)F)c(Cl)cn2)s1 + CC(Nc1ncnc2nc[nH]c12)c1cc2cccc(Cl)c2c(=O)n1-c1ccccc1
inactive: viability, T/C [1] 88.8% | viability, T/C [2] 84.2% | viability, T/C [3] 102% | viability, T/C [4] 85% | viability, T/C [5] 99.7% | viability, T/C [6] 75.5% | viability, T/C [7] 90.3% | viability, T/C [8] 104% | viability, T/C [9] 108% | viability, T/C [10] 89% | viability, T/C [11] 89.6% | viability, T/C [12] 59.4% | viability, T/C [13] 103% | viability, T/C [14] 104% | viability, T/C [15] 92.5% | viability, T/C [16] 98.8% | viability, T/C [17] 87.9% | viability, T/C [18] 62.1% | viability, T/C [19] 100% | viability, T/C [20] 94.5% | viability, T/C [21] 97.4% | viability, T/C [22] 96.5% | viability, T/C [23] 102% | viability, T/C [24] 71% | viability, T/C [25] 90.6% | viability, T/C [26] 89.3% | viability, T/C [27] 105% | viability, T/C [28] 99% | viability, T/C [29] 92.8% | viability, T/C [30] 68.9% | viability, T/C [31] 82.7% | viability, T/C [32] 86% | viability, T/C [33] 84.8% | viability, T/C [34] 93.1% | viability, T/C [35] 87.7% | viability, T/C [36] 70.3%
> 10 µM: IC50 (second compound 0.0316 µM) | IC50 (second compound 0.1 µM) | IC50 (second compound 0.316 µM) | IC50 (second compound 1 µM) | IC50 (second compound 3.16 µM) | IC50 (second compound 10 µM)

CNC(=O)c1ccc(N2C(=S)N(c3ccc(C#N)c(C(F)(F)F)c3)C(=O)C2(C)C)cc1F + CC(Nc1ncnc2nc[nH]c12)c1cc2cccc(Cl)c2c(=O)n1-c1ccccc1
> 10 µM: IC50 (second compound 0.0316 µM) | IC50 (second compound 0.1 µM) | IC50 (second compound 0.316 µM) | IC50 (second compound 1 µM) | IC50 (second compound 3.16 µM) | IC50 (second compound 10 µM)
inactive: viability, T/C [1] 97.4% | viability, T/C [2] 99.1% | viability, T/C [3] 92.9% | viability, T/C [4] 93% | viability, T/C [5] 109% | viability, T/C [6] 95.8% | viability, T/C [7] 95.2% | viability, T/C [8] 113% | viability, T/C [9] 109% | viability, T/C [10] 104% | viability, T/C [11] 94.4% | viability, T/C [12] 93.8% | viability, T/C [13] 100% | viability, T/C [14] 97.8% | viability, T/C [15] 97.6% | viability, T/C [16] 109% | viability, T/C [17] 105% | viability, T/C [18] 91.5% | viability, T/C [19] 97% | viability, T/C [20] 92.4% | viability, T/C [21] 95.9% | viability, T/C [22] 117% | viability, T/C [23] 93.6% | viability, T/C [24] 95% | viability, T/C [25] 105% | viability, T/C [26] 106% | viability, T/C [27] 105% | viability, T/C [28] 108% | viability, T/C [29] 85.2% | viability, T/C [30] 95.5% | viability, T/C [31] 89.3% | viability, T/C [32] 86.5% | viability, T/C [33] 94.5% | viability, T/C [34] 97% | viability, T/C [35] 95.3% | viability, T/C [36] 86.6%
